Counter-ions that a name gives are not always drawn. Residues, ends and D or L forms follow the SMILES beside them.
Tests used:
[1] = Stability of carbamide peroxide stored with sweeteners; format: physicochemical; details: for tendency of sweetener to react with the peroxide: result in words; for % Carbamide Peroxide recovered after 4 weeks of aging with sweetener at 25 C.: carbamide peroxide stored with sweetener, four weeks
Protocol: The present inventors have compared the action of certain sweeteners on the effect with carbamide peroxide, with surprising results. Carbamide peroxide was stored with three sweeteners, and stored for four weeks at 25° C. to determine stability. The three sweeteners included aspartame, acesulfame potassium and sucralose. The percentage of carbamide peroxide recovered after four weeks was measured.

[2] = Shelf life stability of encapsulated carbamide peroxide in chewing gum (Example 1); format: physicochemical; details: without encapsulation, after two weeks of storage
Protocol: The stability of various encapsulants for carbamide peroxide in chewing gum was measured. As explained above, peroxides in general are known to be problematic in the shelf life of chewing gums, as they have a tendency to break down gum base, rendering it ineffective and useless. Chewing gums including various encapsulated carbamide peroxides were prepared and were stored for eight weeks at room temperature and at 37° C. Solid carbamide peroxide was encapsulated in the following encapsulating materials: (1) ethyl cellulose (25% encapsulant weight); (2) polyvinyl acetate B30 (30% encapsulant weight); (3) gum arabic (30% encapsulant weight); (4) mannitol (30% encapsulant weight); and (5) shellac (30% encapsulant weight). These encapsulated particles were used in formulating pieces of chewing gum and were measured for shelf life stability. In addition, a control chewing gum was prepared, which included non-encapsulated (“free”) carbamide peroxide within the gum base. The amount of carbamide peroxide obtained after the study was measured. […] At room temperature after eight weeks, chewing gums including this encapsulated carbamide peroxide had approximately 95% of the carbamide peroxide remaining. Even after eight weeks at elevated temperatures, these products had approximately 80% of the carbamide peroxide remaining.

| Compound | tendency of sweetener to react with the peroxide [1] | % Carbamide Peroxide recovered after 4 weeks of aging with sweetener at 25 C. [1] | % Carbamide Peroxide recovered after 4 weeks of aging with sweetener at 25 C. ([1]; listed as aspartame) | carbamide peroxide decomposed in chewing gum product [2] |
| --- | --- | --- | --- | --- |
| OC[C@@H](O)[C@@H](O[C@H]1O[C@H](CO)[C@@H](O)[C@H](O)[C@H]1O)[C@H](O)[C@@H](O)CO [maltitol] | do not react with the peroxide | – | – | – |
| OCC(O)CO [glycerin] | have a tendency to react with the peroxide | – | – | – |
| isomalt | do not react with the peroxide | – | – | – |
| COC(=O)[C@H](Cc1ccccc1)NC(=O)[C@@H](N)CC(=O)O [Aspartame, L-aspartyl-L-phenylalanine methyl ester] (H-Asp-Phe-OMe) | have a tendency to react with the peroxide | 78% | significant reduction | – |
| CC1=CC(=O)NS(=O)(=O)O1 [Ace-K, potassium salt of 3,4-dihydro-6-methyl-1,2,3-oxathiazine-4-one-2,2-dioxide] | – | 92% | – | – |
| OC[C@H]1O[C@H](O[C@]2(CCl)O[C@H](CCl)[C@@H](O)[C@@H]2O)[C@H](O)[C@@H](O)[C@H]1Cl [Sucralose] | do not react with the peroxide | 100% | – | – |
| NC(N)=O.OO [carbamide peroxide] | – | – | – | nearly all of the carbamide peroxide is decomposed |

Source: patent US20140105948A1, “STABILITY OF PEROXIDE IN ORAL CARE COMPOSTIONS” (INTERCONTINENTAL GREAT BRANDS LLC, priority 2011, published 2014)
